From patent publication US8461410B2, “Wound dressing materials comprising complexes of anionic polysaccharides with silver” (Ethicon, Inc., priority 2002, dated 2013)

Legend:
[1] = tested on: Staphylococcus aureus; assay: Zone of inhibition test of bactericidal activity (Procedure 1); format: cell-based; details: 2 cm x 2 cm sample on inoculated DSA plate, 37° C., read every 24 hours; FIGS. 1 and 2
Procedure: (§1) Six 2 cm×2 cm squares of each sample were cut out in sterile conditions. On day one of the experiment cultures of both Pseudomonas aeruginosa and Staphylococcus aureus were incubated aerobically at 37° C. for 24 hours on Diagnostic Sensitivity Agar (DSA). After 24 hours test samples were each placed on a DSA plate and were immediately wetted with 0.5 mls of a buffer solution. Three squares of sample were placed on plates inoculated with Pseudomonas aeruginosa and three were placed on plates inoculated with Staphylococcus aureus. The plates were then incubated at 37° C. for 24 hours. The zone of inhibited growth around the sample was then measured using callipers and the test sample was placed on a new inoculated DSA plate. A swab test was carried out on the area beneath the sample to determine if the sample was bacteriostatic if not bactericidal by smearing the swab on a DSA plate and incubating it for 24 hours and then examining the growth. The samples were transferred onto fresh inoculated plates with the above procedure being carried out every 24 hours for 72 hours as long as the samples remain intact.
(§2) As a negative control, a freeze dried sponge of 45% ORC/55% collagen without any silver was tested.

[2] = tested on: Pseudomonas aeruginosa; assay: as above; format: cell-based; details: 2 cm x 2 cm sample on inoculated DSA plate, 37° C., read every 24 hours; FIG. 3
Procedure: as §1, §2

In the case of `O=[N+]([O-])[O-].[Ag+]` [silver nitrate solution (0.5%), silver nitrate], the “bactericidal effect / zone of inhibition against Staphylococcus aureus” value [1] is reported as “zones of inhibition were observed” and the “bactericidal effect / zone of inhibition against Pseudomonas aeruginosa” value [2] is reported as “zones of inhibition were observed”.
